{"source": "patent US5525503A", "about": "“Signal transduction via CD28” (priority 1993, dated 1996)", "key": {"[1]": {"molecular_target": "association of PI 3-kinase with CD28 (Homo sapiens, UniProt P27986)", "sequence (P27986 whole entry)": "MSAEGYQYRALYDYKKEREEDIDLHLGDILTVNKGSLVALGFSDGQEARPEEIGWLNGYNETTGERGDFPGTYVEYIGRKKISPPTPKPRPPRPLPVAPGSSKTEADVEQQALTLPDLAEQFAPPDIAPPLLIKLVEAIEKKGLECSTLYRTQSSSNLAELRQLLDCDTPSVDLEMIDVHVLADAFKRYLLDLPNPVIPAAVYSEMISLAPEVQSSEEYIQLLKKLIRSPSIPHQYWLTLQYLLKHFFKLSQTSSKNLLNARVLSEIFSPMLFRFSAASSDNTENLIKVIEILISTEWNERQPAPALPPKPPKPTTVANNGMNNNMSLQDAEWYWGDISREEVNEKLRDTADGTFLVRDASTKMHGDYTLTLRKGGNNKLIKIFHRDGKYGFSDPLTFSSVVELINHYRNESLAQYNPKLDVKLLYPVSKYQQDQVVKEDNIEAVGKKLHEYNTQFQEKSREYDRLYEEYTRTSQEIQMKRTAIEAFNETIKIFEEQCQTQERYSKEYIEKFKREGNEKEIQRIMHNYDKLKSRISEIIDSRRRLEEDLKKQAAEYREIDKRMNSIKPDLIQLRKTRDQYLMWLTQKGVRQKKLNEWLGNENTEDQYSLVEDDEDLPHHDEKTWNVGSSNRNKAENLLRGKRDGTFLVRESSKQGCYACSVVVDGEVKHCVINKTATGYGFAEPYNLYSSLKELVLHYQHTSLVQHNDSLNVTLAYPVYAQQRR", "assay": "Peptide competition: displacement of PI 3-kinase from CD28 (anti-CD28 immunoprecipitation, anti-p85 immunoblotting)", "format": "binding", "settings": "peptide 10-50 μM; longer exposure of autoradiograph"}, "PI 3-kinase": {"tested_on": "PI 3-kinase", "assay": "CD28-associated PI 3-kinase lipid kinase activity of CD28 mutants in transfected Cos-1 cells after anti-CD28 crosslinking (TLC, laser densitometry)", "format": "cell-based", "settings": "relative to wild type CD28", "excerpt": "FIG. 8 is a photograph of TLC analysis of lipid products following CD28 crosslinking. Cos-1 cells were transfected with wild type CD28 (WT) (lane 2), Tyr-191 to Phe mutant (F191) (lane 3), Met-194 to Cys (C194) (lane 4), and Tyr-209 to Phe (F209) (lane 5). Transfected cells were then subjected to anti-CD28 crosslinking, immunoprecipitation and lipid kinase analysis. Non-transfected cells served as a negative control (lane 1), while immunoprecipitation with anti-p85 antibody served as a positive control (lane 6).\nFIG. 9 is a bar graph showing relative autoradiographic intensities of PI-P spots detected in the TLC analysis shown in FIG. 8. Intensity was quantitated by laser densitometric scanning.\nThe lipid kinase reaction was carried out on beads using soybean phosphatidyl inositol liposomes and γ32P-ATP (20 μCi). Lipids were then extracted using chloroform and methanol (1:1) and separated by thin layer chromatography on a silica gel plate precoated with potassium oxalate using a basic system (chloroform, methanol, water, ammonium hydroxide (60:47:11.3:2), as described in Whitman et al., supra and Auger et al., supra. The corresponding TLC spots were cut, counted for Cherenkov counts and extracted with a solution containing methylamine, methanol and n-butanol (57.7 ml of 25% methylamine in water, 61.6 ml of methanol and 15.6 ml of n-butanol) for 1 h at 53° C. This method also results in the deacylation of lipids. The samples were dried under vacuum and reconstituted in water. […] The deacylated phospholipids were analyzed on a Beckman HPLC system using an ion exchange column and a gradient of NH4 HPO4. ^3 H-PI-4P and adenosine diphosphate were used as internal standards.\nAmino acid residues at positions Tyr-191, Met-194 and Tyr-209 were mutated using a site-directed mutagenesis system from Promega (Madison, Wis.). […] Cells were assessed for cell surface expression of CD28 by fluorescence-activated cell sorting (FACS) (EPICS, Coulter Immunology, Hialeah, Fla.). […]"}, "CD28 signalling": {"tested_on": "CD28 signalling", "settings": "cited from earlier work"}}, "data": [{"molecule": "CSCC[C@H](NC(=O)[C@@H]1CCCN1C(=O)[C@H](CCSC)NC(=O)[C@H](Cc1ccc(OP(=O)(O)O)cc1)NC(=O)[C@H](CCC(=O)O)NC(=O)[C@H](CCC(=O)O)NC(=O)[C@@H](N)CCC(=O)O)C(=O)N[C@@H](CCC(=O)O)C(=O)N[C@@H](CC(=O)O)C(=O)N[C@@H](CC(C)C)C(=O)N[C@@H](Cc1ccc(O)cc1)C(=O)N[C@@H](CC(C)C)C(=O)O", "note": "[Glu-Glu-Glu-Tyr-Met-Pro-Met-Glu-Asp-Leu-Tyr-Leu]", "values": [{"measurement": "reduction of the level of CD28-associated p85 PI 3-kinase", "setting": "[1]", "value": "60-80%"}]}, {"molecule": "C194: CD28 with Met-194 mutated to Cys by site-directed mutagenesis", "values": [{"measurement": "effect of CD28 mutation on associated PI 3-kinase (TLC, in words)", "setting": "PI 3-kinase", "value": "partial effect in reducing the level of associated kinase"}, {"measurement": "reduction of CD28-associated PI 3-kinase activity (laser densitometry of PI-P spots)", "setting": "PI 3-kinase", "value": "approximately 40%"}]}, {"molecule": "F209: CD28 with distal Tyr-209 mutated to Phe, control mutant", "values": [{"measurement": "effect of CD28 mutation on associated PI 3-kinase (TLC, in words)", "setting": "PI 3-kinase", "value": "no effect relative to the wild type control"}]}, {"molecule": "C=CC[C@@H]1/C=C(\\C)C[C@H](C)C[C@H](OC)[C@H]2O[C@@](O)(C(=O)C(=O)N3CCCC[C@H]3C(=O)O[C@H](/C(C)=C/[C@@H]3CC[C@@H](O)[C@H](OC)C3)[C@H](C)[C@@H](O)CC1=O)[C@H](C)C[C@@H]2OC", "note": "[FK506]", "values": [{"measurement": "sensitivity of CD28 signalling to the reagent", "setting": "CD28 signalling", "value": "resistant"}]}, {"molecule": "cholera toxin", "values": [{"measurement": "sensitivity of CD28 signalling to the reagent", "setting": "CD28 signalling", "value": "resistant"}]}]}
